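Following 48 hours of exposure in 96-well plates, responses at five concentrations were used to interpolate endpoints linearly. GI50 = concentration required for 50% inhibition of growth. At the TGI there is no net growth.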
Legend:
Assay in all cases: DTP human tumour cell line panel, 48 h
786-0 renal = test system: 786-0 renal
A498 renal = test system: A498 renal
A549 NSCLC = test system: A549 NSCLC
BT-549 breast = test system: BT-549 breast
CAKI-1 renal = test system: CAKI-1 renal
CCRF-CEM leukemia = test system: CCRF-CEM leukemia
COLO 205 colon = test system: COLO 205 colon
DU-145 prostate = test system: DU-145 prostate
EKVX NSCLC = test system: EKVX NSCLC
HCC-2998 colon = test system: HCC-2998 colon
HCT-116 colon = test system: HCT-116 colon
HCT-15 colon = test system: HCT-15 colon
HL-60(TB) leukemia = test system: HL-60(TB) leukemia
HOP-62 NSCLC = test system: HOP-62 NSCLC
HOP-92 NSCLC = test system: HOP-92 NSCLC
HS 578T breast = test system: HS 578T breast
HT29 colon = test system: HT29 colon
IGROV1 ovarian = test system: IGROV1 ovarian
K-562 leukemia = test system: K-562 leukemia
KM12 colon = test system: KM12 colon
LOX IMVI melanoma = test system: LOX IMVI melanoma
M14 melanoma = test system: M14 melanoma
MALME-3M melanoma = test system: MALME-3M melanoma
MCF7 breast = test system: MCF7 breast
MDA-MB-231 breast = test system: MDA-MB-231 breast
MDA-MB-435 = test system: MDA-MB-435
MOLT-4 leukemia = test system: MOLT-4 leukemia
NCI-H226 lung = test system: NCI-H226 lung
NCI-H23 lung = test system: NCI-H23 lung
NCI-H460 lung = test system: NCI-H460 lung
NCI-H522 lung = test system: NCI-H522 lung
NCI/ADR-RES ovarian = test system: NCI/ADR-RES ovarian
OVCAR-3 ovarian = test system: OVCAR-3 ovarian
OVCAR-4 ovarian = test system: OVCAR-4 ovarian
OVCAR-5 ovarian = test system: OVCAR-5 ovarian
OVCAR-8 ovarian = test system: OVCAR-8 ovarian
PC-3 prostate = test system: PC-3 prostate
RPMI-8226 leukemia = test system: RPMI-8226 leukemia
RXF 393 renal = test system: RXF 393 renal
SF-268 CNS = test system: SF-268 CNS
SF-295 CNS = test system: SF-295 CNS
SF-539 CNS = test system: SF-539 CNS
SK-MEL-2 melanoma = test system: SK-MEL-2 melanoma
SK-MEL-28 melanoma = test system: SK-MEL-28 melanoma
SK-MEL-5 melanoma = test system: SK-MEL-5 melanoma
SK-OV-3 ovarian = test system: SK-OV-3 ovarian
SN12C renal = test system: SN12C renal
SNB-19 CNS = test system: SNB-19 CNS
SNB-75 CNS = test system: SNB-75 CNS
SR leukemia = test system: SR leukemia
SW-620 colon = test system: SW-620 colon
T-47D breast = test system: T-47D breast
TK-10 renal = test system: TK-10 renal
U251 CNS = test system: U251 CNS
UACC-257 melanoma = test system: UACC-257 melanoma
UACC-62 melanoma = test system: UACC-62 melanoma
UO-31 renal = test system: UO-31 renal

Work on `COc1ccc(-c2cn(-c3cccc(C(=O)/C=C/c4cc(OC)c(OC)c(OC)c4)c3)c(=O)[nH]2)cc1` yielded a GI50 (786-0 renal) of 1.61 µM, a TGI (786-0 renal) of 3.25 µM and a GI50 (A498 renal) of 4.21 µM. The TGI (A498 renal) was 14.5 µM, the GI50 (A549 NSCLC) was 11.8 µM and the TGI (A549 NSCLC) was greater than 100 µM. It also gave a GI50 (BT-549 breast) of 2.59 µM, a TGI (BT-549 breast) of 8.92 µM and a GI50 (CAKI-1 renal) of 3.05 µM. The TGI (CAKI-1 renal) was 13.2 µM, the GI50 (CCRF-CEM leukemia) was 1.74 µM and the TGI (CCRF-CEM leukemia) was greater than 100 µM. The GI50 (COLO 205 colon) was 1.84 µM, the TGI (COLO 205 colon) was 3.89 µM and the GI50 (DU-145 prostate) was 2.61 µM. The TGI (DU-145 prostate) was 8.76 µM, the GI50 (EKVX NSCLC) was 4.2 µM and the TGI (EKVX NSCLC) was greater than 100 µM. It also gave a GI50 (HCC-2998 colon) of 1.64 µM, a TGI (HCC-2998 colon) of 3 µM and a GI50 (HCT-116 colon) of 0.371 µM. The TGI (HCT-116 colon) was 1.38 µM, the GI50 (HCT-15 colon) was 1.38 µM and the TGI (HCT-15 colon) was 4.7 µM. It also gave a GI50 (HL-60(TB) leukemia) of 4.28 µM, a TGI (HL-60(TB) leukemia) greater than 100 µM and a GI50 (HOP-62 NSCLC) of 5.91 µM. For the same compound, the TGI (HOP-62 NSCLC) was 18.1 µM, the GI50 (HOP-92 NSCLC) was 14.9 µM and the TGI (HOP-92 NSCLC) was 67.2 µM. The GI50 (HS 578T breast) was 3.39 µM, the TGI (HS 578T breast) was 25.6 µM and the GI50 (HT29 colon) was 1.28 µM. For the same compound, the TGI (HT29 colon) was 2.58 µM, the GI50 (IGROV1 ovarian) was 2.58 µM and the TGI (IGROV1 ovarian) was 7.42 µM. It also gave a GI50 (K-562 leukemia) of 1.27 µM, a TGI (K-562 leukemia) greater than 100 µM and a GI50 (KM12 colon) of 1.42 µM. For the same compound, the TGI (KM12 colon) was 2.75 µM, the GI50 (LOX IMVI melanoma) was 0.725 µM and the TGI (LOX IMVI melanoma) was 2.3 µM. It also gave a GI50 (M14 melanoma) of 1.85 µM, a TGI (M14 melanoma) of 5.21 µM and a GI50 (MALME-3M melanoma) of 1.79 µM. It also gave a TGI (MALME-3M melanoma) of 6.24 µM, a GI50 (MCF7 breast) of 0.444 µM and a TGI (MCF7 breast) of 3.45 µM. The GI50 (MDA-MB-231 breast) was 5.48 µM, the TGI (MDA-MB-231 breast) was 25.4 µM and the GI50 (MDA-MB-435) was 1.86 µM. The TGI (MDA-MB-435) was 7.49 µM, the GI50 (MOLT-4 leukemia) was 3.48 µM and the TGI (MOLT-4 leukemia) was greater than 100 µM. The GI50 (NCI-H226 lung) was 35.2 µM, the TGI (NCI-H226 lung) was greater than 100 µM and the GI50 (NCI-H23 lung) was 1.63 µM. It also gave a TGI (NCI-H23 lung) of 4.35 µM, a GI50 (NCI-H460 lung) of 1.56 µM and a TGI (NCI-H460 lung) of 3.14 µM. It also gave a GI50 (NCI-H522 lung) of 1.85 µM, a TGI (NCI-H522 lung) of 4.39 µM and a GI50 (NCI/ADR-RES ovarian) of 1.7 µM. It also gave a TGI (NCI/ADR-RES ovarian) of 4.67 µM, a GI50 (OVCAR-3 ovarian) of 1.78 µM and a TGI (OVCAR-3 ovarian) of 4.23 µM. The GI50 (OVCAR-4 ovarian) was 3.57 µM, the TGI (OVCAR-4 ovarian) was greater than 100 µM and the GI50 (OVCAR-5 ovarian) was 2.64 µM. The TGI (OVCAR-5 ovarian) was 5.51 µM, the GI50 (OVCAR-8 ovarian) was 2.53 µM and the TGI (OVCAR-8 ovarian) was 15.3 µM. It also gave a GI50 (PC-3 prostate) of 6.22 µM, a TGI (PC-3 prostate) of 39 µM and a GI50 (RPMI-8226 leukemia) of 0.924 µM. For the same compound, the TGI (RPMI-8226 leukemia) was greater than 100 µM, the GI50 (RXF 393 renal) was 1.92 µM and the TGI (RXF 393 renal) was 3.75 µM. For the same compound, the GI50 (SF-268 CNS) was 3.21 µM, the TGI (SF-268 CNS) was 10.6 µM and the GI50 (SF-295 CNS) was 4.95 µM. The TGI (SF-295 CNS) was 22 µM, the GI50 (SF-539 CNS) was 2 µM and the TGI (SF-539 CNS) was 4.09 µM. It also gave a GI50 (SK-MEL-2 melanoma) of 2.63 µM, a TGI (SK-MEL-2 melanoma) of 7.41 µM and a GI50 (SK-MEL-28 melanoma) of 2.03 µM. For the same compound, the TGI (SK-MEL-28 melanoma) was 4.04 µM, the GI50 (SK-MEL-5 melanoma) was 2.03 µM and the TGI (SK-MEL-5 melanoma) was 5.25 µM. It also gave a GI50 (SK-OV-3 ovarian) of 4.6 µM, a TGI (SK-OV-3 ovarian) of 61.2 µM and a GI50 (SN12C renal) of 3.5 µM. It also gave a TGI (SN12C renal) of 18.5 µM, a GI50 (SNB-19 CNS) of 4.38 µM and a TGI (SNB-19 CNS) of 15.8 µM. For the same compound, the GI50 (SNB-75 CNS) was 4.59 µM, the TGI (SNB-75 CNS) was 17 µM and the GI50 (SR leukemia) was 0.85 µM. The TGI (SR leukemia) was greater than 100 µM, the GI50 (SW-620 colon) was 0.452 µM and the TGI (SW-620 colon) was 1.61 µM. The GI50 (T-47D breast) was 3.84 µM, the TGI (T-47D breast) was 22.4 µM and the GI50 (TK-10 renal) was 3.04 µM. It also gave a TGI (TK-10 renal) of 9.97 µM, a GI50 (U251 CNS) of 0.888 µM and a TGI (U251 CNS) of 3.25 µM. The GI50 (UACC-257 melanoma) was 3.04 µM, the TGI (UACC-257 melanoma) was 12.1 µM and the GI50 (UACC-62 melanoma) was 2.06 µM. For the same compound, the TGI (UACC-62 melanoma) was 4.85 µM, the GI50 (UO-31 renal) was 1.91 µM and the TGI (UO-31 renal) was 6.73 µM.

From PubChem BioAssay (NCI)
